This note sets out measurements from patent publication US8980899B2, “Methods of inhibiting Ire1” (The Regents of the University of California, priority 2009, dated 2015).

Each structure is given as a SMILES string.

Sequence of Recombinant human Ire1-alpha (O75460 19-977): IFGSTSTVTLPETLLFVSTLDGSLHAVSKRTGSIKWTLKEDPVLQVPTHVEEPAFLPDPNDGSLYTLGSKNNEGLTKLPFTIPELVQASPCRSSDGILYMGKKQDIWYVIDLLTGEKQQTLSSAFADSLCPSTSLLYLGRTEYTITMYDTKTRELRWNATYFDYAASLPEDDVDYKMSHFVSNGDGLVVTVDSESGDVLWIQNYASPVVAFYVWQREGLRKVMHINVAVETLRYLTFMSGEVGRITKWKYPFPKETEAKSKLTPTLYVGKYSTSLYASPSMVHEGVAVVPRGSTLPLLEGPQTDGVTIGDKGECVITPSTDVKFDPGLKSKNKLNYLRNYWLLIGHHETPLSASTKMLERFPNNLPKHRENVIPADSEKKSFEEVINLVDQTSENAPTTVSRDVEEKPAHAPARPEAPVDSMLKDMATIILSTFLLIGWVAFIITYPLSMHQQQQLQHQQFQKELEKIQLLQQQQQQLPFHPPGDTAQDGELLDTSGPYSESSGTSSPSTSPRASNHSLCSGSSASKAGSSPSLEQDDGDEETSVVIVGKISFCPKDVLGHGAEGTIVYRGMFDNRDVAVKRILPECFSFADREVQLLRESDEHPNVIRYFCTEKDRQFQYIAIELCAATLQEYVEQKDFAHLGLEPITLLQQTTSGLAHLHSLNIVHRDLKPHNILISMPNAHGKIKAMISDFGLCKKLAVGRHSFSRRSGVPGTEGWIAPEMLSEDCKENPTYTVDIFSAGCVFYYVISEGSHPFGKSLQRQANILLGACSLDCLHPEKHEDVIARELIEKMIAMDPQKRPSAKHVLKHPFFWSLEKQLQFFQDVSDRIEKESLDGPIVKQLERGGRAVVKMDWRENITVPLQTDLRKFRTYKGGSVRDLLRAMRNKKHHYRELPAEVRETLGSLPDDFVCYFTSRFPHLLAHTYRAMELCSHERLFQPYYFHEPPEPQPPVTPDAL

For the assay, the target named is Recombinant human Ire1-alpha (Homo sapiens, UniProt O75460). The assay is described as follows: In vitro inhibition assay, cleavage of 32P-stem-loop RNA by human Ire1. The assay is classed as biochemical. The settings on record: in vitro cleavage of 32P-stem-loop RNA by human Ire1, AD series; Control (no inhibitor) 8.8310e−3. The procedure:
Recombinant human […]) was mixed with reaction buffer, inhibitor solution in DMSO, and ^32P-labeled RNA substrate having sequence 5'-[…] NO:1). Reactions were conducted at 30° C. and initiated by adding the RNA to reaction pre-mix containing all the components minus the RNA. […] (The reaction mixture may be modified by using different components or concentrations, different RNA substrate, or different Ire1 protein construct.) At time intervals (0 seconds, 10 seconds, 30 seconds, and 3 minutes), 1 μl aliquots of reaction mixture were taken and quenched in 10 M Urea, 0.1% SDS. Samples were analyzed by denaturing polyacrylamide gel electrophoresis and quantified using Typhoon phosphorImager. […] Reactions with Irestatin and exemplary compounds were conducted analogously. Irestatin was a gift obtained from the SPECS screen available as 5 mM solution in DMSO at UCSF small molecule discovery center.
For the molecule `Nc1ncnc2c1c(-c1ccc(NC(=O)Nc3cccc(C(F)(F)F)c3)cc1)nn2[C@H]1CCOC1` [AD66, 1-(4-(4-amino-1-((S)-tetrahydrofuran-3-yl)-1H-pyrazolo[3,4-d]pyrimidin-3-yl)phenyl)-3-(3-(trifluoromethyl)phenyl)urea], the Ire1 activity worked out at 0.0107.
In the case of `Nc1ncnc2c1c(-c1ccc(NC(=O)c3cccc(C(F)(F)F)c3)cc1)nn2[C@H]1CCOC1` [AD67, N-(4-(4-amino-1-((S)-tetrahydrofuran-3-yl)-1H-pyrazolo[3,4-d]pyrimidin-3-yl)phenyl)-3-(trifluoromethyl)benzamide], the Ire1 activity is given as 0.0100.
Turning to `Nc1ncnc2c1c(-c1ccc(NC(=O)c3cccc(C(F)(F)F)c3)cc1)nn2[C@@H]1CCOC1` [AD68, N-(4-(4-amino-1-((R)-tetrahydrofuran-3-yl)-1H-pyrazolo[3,4-d]pyrimidin-3-yl)phenyl)-3-(trifluoromethyl)benzamide], the Ire1 activity is 8.4550e−3.
Next, `Nc1ncnc2c1c(-c1ccc(NC(=O)Nc3cccc(C(F)(F)F)c3)cc1)nn2[C@@H]1CCOC1` [AD69, 1-(4-(4-amino-1-((R)-tetrahydrofuran-3-yl)-1H-pyrazolo[3,4-d]pyrimidin-3-yl)phenyl)-3-(3-(trifluoromethyl)phenyl)urea]: 0.0127; `Nc1ncnc2c1c(-c1ccc(NC(=O)c3cccc(C(F)(F)F)c3)cc1)nn2[C@H]1CCNC1` [AD70, N-(4-(4-amino-1-((S)-pyrrolidin-3-yl)-1H-pyrazolo[3,4-d]pyrimidin-3-yl)phenyl)-3-(trifluoromethyl)benzamide]: 9.0580e−3; `Nc1ncnc2c1c(-c1ccc(NC(=O)Nc3cccc(C(F)(F)F)c3)cc1)nn2[C@H]1CCN(C(=O)Nc2cccc(C(F)(F)F)c2)C1` [AD71c]: 1.2650e−3.
With `Nc1ncnc2c1c(-c1ccc(NC(=O)c3cccc(C(F)(F)F)c3)cc1)nn2[C@@H]1CCNC1` [AD72, N-(4-(4-amino-1-((R)-pyrrolidin-3-yl)-1H-pyrazolo[3,4-d]pyrimidin-3-yl)phenyl)-3-(trifluoromethyl)benzamide] the figure was 6.4950e−3.
